Experiment [1] has as its system HIV-1 virus (NL4.3 strain). Briefly: MT-2 based antiviral assay (S8737E). Format: cell-based. The note with it: Human immunodeficiency virus 1, 72 h, read-out: Antiviral Activity (S8737E, μM), HIV-1 NL4.3 replication in MT2 cells, 3 days, β-Gal readout in JC53BL cells. An excerpt: MT-2 Based Antiviral Assay (S8737E)
This assay is designed to determine the effects of small molecules on the replication of HIV-1 in the lymphobastoid cell line, MT2, and is able to detect the antiviral effect of compounds acting at any stage of the HIV-1 replication cycle. The assay, along with its associated cytotoxicity assay, was described in detail in 2005 in a paper by Cao et al (Antimicrobial Agents and Chemotherapy 2005; 49(9), p 3833-3841).
MT2 cells are infected with the HIV-1 virus (NL4.3 strain; Adachi et al., Journal of Virology 1986) and transferred to assay plates containing serial dilutions of compounds to be tested. The assay plates are incubated for 3 days (MT2) to allow for several rounds of viral replication/infection to take place. At the end of this time, supernatant is transferred into new plates containing JC53BL cells.
JC53BL cells express CXCR4, CCR5 and CD4 receptors, and HIV-1-LTR-β-Gal. Under normal culture conditions undetectable levels of β-Galactosidase are expressed, but in the presence of HIV-1, the viral Tat protein is able to activate the HIV-1-LTR in the JC53BL cells resulting in the increased expression of the β-Gal enzyme. The expression can be measured using the ‘FluorAce β-Galactosidase reporter’ assay. The levels of β-Gal are directly proportional to the levels of Tat (up to a threshold) allowing virus quantification. Compounds that inhibit virus replication will give rise to a reduced signal and a dose-response curve for each compound can be generated. This is then used to determine the IC50 for each compound, a measure of the compound's potency.

For experiment [2], the target named is T1, LEDGF-Integrase interaction (Human immunodeficiency virus type 1 group M subtype B, UniProt P12497).
T1 construct: His6-tagged integrase (78 nM final concentration); purchased Prof; Zeger Debyser, Katholieke Universiteit Leuven (supplied by an academic laboratory, not a commercial vendor)
Description: HTRF Interaction assay (S9118). Details: species or system HIV. The note with it: His6-tagged integrase and MBP-LEDGF integrase binding domain. An excerpt: • Adachi, A., Gendelman, H., Koenig, S., Folks, T., Wiley, R., Rabson, A. and Martin, M (1986) Production of acquired immunodeficency syndrome-associated retrovirus in human and nonhuman cells transfected with an infectious molecular clone, J. Virol., 59, 284-291. • Cao J, Isaacson J, Patick A K, Blair W S. (2005) High-throughput human immunodeficiency virus type 1 (HIV-1) full replication assay that includes HIV-1 Vif as an antiviral target Antimicrobial Agents and Chemotherapy; 49(9), p 3833-3841. Assay to Measure the LEDGF-Integrase Integration Inhibitory Activity of Compounds of the Invention HTRF Interaction Assay (S9118)
An Homogeneous Time Resolved Fluorescence (HTRF) assay is performed in a manner similar to previous reports on HTRF protein assays as reviewed by Mathis (Clin. Chem., 2005). The assay procedure is performed as follows: reactions are performed in 20 μl final volume in 384-well black low volume microtiter plates (Greiner). The final reaction buffer contains 29 mM phosphase buffer (pH 7), 10 mM HEPES buffet (pH 7.4), 68.5 mM NaCl, 1.4 mM KCl, 400 mM KF 0.05% (w/v) pluronic acid (P104, Sigma Aldrich) and 1% (v/v) DMSO. His6-tagged integrase (78 nM final concentration) is incubated with […] fused to the Δ325 carboxy terminal integrase binding domain of LEDGF in the presence of compound for 2 hours at room temperature. Both these protein regents are supplied by Prof. Zeger Debyser of Katholleke Universiteit Leuven, Leuven, Belgium. The compounds are added at varying concentrations spanning a wide range from 0.1 up to 100 μM. Afterwards 8.3 nM of europium cryptate conjugated anti-MBP monoclonal antibody and 17 nM anti-His antibody conjugated with the acceptor fluorophore d2. Following a 2 hour room temperature incubation the plates are read on an EnVision™ microplate reader (Perkin Elmer) using an excitation wavelength of 320 nm. The ratio of fluorescence emitted at […] is used to assess the degree to which the protein-protein interaction had been inhibited.

The values that follow come from patent publication US9447116B2, “Inhibitors of HIV replication” (priority 2010, dated 2016).

For `Cc1nc2sc3c(c2c(-c2cccc(-n4cccn4)c2)c1C(OC(C)(C)C)C(=O)O)CCCC3` (stereo not drawn) [Example 38], the values for the IC50 in experiment [1] and in experiment [2] (table values) were 15.1 µM and 97.5 µM, respectively.

As for `COc1ncc(-c2c(C(OC(C)(C)C)C(=O)O)c(C)nc3sc4c(c23)CCCC4)cn1` (stereo not drawn) [Example 39], the IC50 is 15.5 µM in experiment [1] and over 100 µM in experiment [2] (table values).

As for `CCOC(C(=O)O)c1c(C)nc2sc3c(c2c1-c1cnn(CC)c1)CCCC3` (stereo not drawn) [Example 41], the IC50 in experiment [1] was 17.7 µM; in experiment [2] (table values), over 100 µM.

`CCOC(C(=O)O)c1c(C)nc2sc3c(c2c1-c1ccc(OC)nc1)CCCC3` (stereo not drawn) [Example 42]: the results for the IC50 in experiment [1] and in experiment [2] (table values) were 18.1 µM and over 100 µM, respectively.

`CCOC(C(=O)O)c1c(C)nc2sc3c(c2c1-c1ccc2c(cnn2C)c1)CCCC3` (stereo not drawn) [Example 43]: the results for the IC50 in experiment [1] and in experiment [2] (table values) were 18.9 µM and over 100 µM, respectively.

For `Cc1nc2sc3c(c2c(-c2ccc(Cl)cc2)c1[C@H](OC(C)(C)C)C(=O)O)CCCC3` [Example 44, (2S)-tert-butoxy[4-(4-chlorophenyl)-2-methyl-5,6,7,8-tetrahydro[1]benzothieno[2,3-b]pyridin-3-yl]acetic acid], the IC50 in experiment [1] amounted to 0.036 µM; in experiment [2], 0.576 µM.

On to `Cc1nc2sc3c(c2c(-c2ccc(Cl)cc2F)c1[C@H](OC(C)(C)C)C(=O)O)CCCC3` [Example 45, (2S)-tert-butoxy[4-(4-chloro-2-fluorophenyl)-2-methyl-5,6,7,8-tetrahydro[1]benzothieno[2,3-b]pyridin-3-yl]acetic acid], for which the IC50 in experiment [1] is 0.023 µM; in experiment [2], 0.565 µM.

As to `Cc1ccc(-c2c([C@H](OC(C)(C)C)C(=O)O)c(C)nc3sc4c(c23)CCCC4)c(F)c1` [Example 47, (2S)-tert-butoxy[4-(2-fluoro-4-methylphenyl)-2-methyl-5,6,7,8-tetrahydro[1]benzothieno[2,3-b]pyridin-3-yl]acetic acid], the figures for the IC50 in experiment [1] and in experiment [2] were 0.071 µM and 0.657 µM, respectively.

In the case of `Cc1nc2sc3c(c2c(-c2ccc(C(F)F)cc2)c1[C@H](OC(C)(C)C)C(=O)O)CCCC3` [Example 49], the IC50 in experiment [1] was determined as 0.081 µM; in experiment [2] it was 11 µM.

As to `Cc1nc2sc3c(c2c(-c2ccc(C(F)(F)F)cc2)c1[C@H](OC(C)(C)C)C(=O)O)CCCC3` [Example 50, (S)-2-(tert-butoxy)-2-(2-methyl-4-(4-(trifluoromethyl)phenyl)-5,6,7,8-tetrahydrobenzo[4.5]thieno[2,3-b]pyridin-3-yl)acetic acid], the IC50 in experiment [1] stood at 0.055 µM; in experiment [2] it was 1.5 µM.

As for `Cc1nc2sc3c(c2c(-c2ccc(Br)cc2)c1[C@H](OC(C)(C)C)C(=O)O)CCCC3` [Example 51, (S)-2-(4-(4-bromophenyl)-2-methyl-5,6,7,8-tetrahydrobenzo[4,5]thieno[2,3-b]pyridin-3-yl)-2-(tert-butoxy)acetic acid], the results for the IC50 in experiment [1] and in experiment [2] were 0.08 µM and 1.16 µM, respectively.

Turning to `Cc1ccc(-c2c(C(OC(C)(C)C)C(=O)O)c(C)nc3sc4c(c23)CCOC4)cc1` (stereo not drawn) [Example 52, Tert-Butoxy-(2-methy-4-p-tolyl-5,8-dihydro-6H-7-oxa-9-thia-1-aza-fluoren-3-yl)-acetic acid], the IC50 in experiment [1] amounted to 0.189 µM; in experiment [2], 2.75 µM.
